Experiment [1] has as its system mouse neural stem cells (NSC) derived from the medial ganglionic eminence of E12.5 mouse embryos. The experiment in a line: Oligodendrogenesis from mouse neural stem cells in vitro (flow cytometry, immunofluorescence). The format is cell-based. From the text:
Mice were bred and utilized as approved by the University of California, Irvine Institutional Animal Care and Use Committee. Dorsal forebrain cortical tissue was dissected from the medial ganglionic eminence (MGE) at embryonic day 12.5 (E12) of CD1 mice (Charles River) or Mgat5−/− C57BL/6 mice and their wildtype littermates and placed in dissection buffer comprising PBS, 0.6% glucose, and 50 U/mL Pen/Strep. Tissue from multiple embryos within the same litter were pooled, and a subsequent culture from a single litter was considered a biological repeat. The tissue was dissociated using 0.05% Trypsin-EDTA at 37° C. for 10 min, followed by treatment with soybean trypsin inhibitor (Life Technologies). Dissociated cells were re-suspended in proliferation medium comprising DMEM, 1× B27, 1× N2, 1 mM sodium pyruvate, 2 mM L-glutamine, 1 mM N-acetylcysteine, 20 ng/mL EGF (PeproTech), 10 ng/mL bFGF (PeproTech), and 2 μg/mL heparin and seeded at 150,000 cells/mL (non-tissue culture treated plastic plates) and grown as non-adherent spheres. Cell cultures were passaged approximately every 3 days using enzyme-free NeuroCult Chemical Dissociation Kit (Mouse) (StemCell Technologies). Cultures were passaged at least once prior to experimental use. For experiments, passaged cells were cultured in proliferation media (bFGF and EGF) or differentiation media (bFGF (10 ng/ml) and PDGF-AA (10 ng/ml); Life technologies) for 48 hours with or without the presence of GIcNAc (Ultimate Glucosamine, Wellesley Therapeutics) or kifunensine (GlycoSyn). Neurospheres were dispersed using the enzyme-free NeuroCult kit before being analyzed by flow cytometry using one or more of the following antibodies: anti-CD140a/PDGF-RA PE conjugate (1:200, A15785, Molecular Probes), anti-04 Alexa Fluor 488 conjugated (1:200, FAB1326G, RnD systems), Anti-GaIC Alexa Fluor 647 1:200, MAB342-AF647, Millipore), Anti-Olig2 (1:200, AB9610, Millipore) with anti-rabbit Alexa Fluor 488 (1:200, thermofisher).
(§1) For neural stem cell (NSC) immunofluorescence, whole neurospheres were seeded onto laminin-coated coverslips (Neuvitro) in proliferation medium. After 24 hours, proliferation media was removed and replaced with differentiation medium (same components as proliferation medium but excluding EGF, bFGF, and heparin) to induce differentiation. For analysis of mouse brains, brains were incubated in 30% sucrose for at least 72 hours, embedded in OCT (Tissue-tek), frozen for at least 48 hours at −80° C., and then cut at 40 microns on a cryostat. Multiple sections from −1 bregma to −2.5 bregma were then stained with antibodies for MBP (1:100; MAB386, Millipore), Olig2 (1:200; AB9610, Millipore), CC1 (1:100; OP90, Millipore), degraded MBP (1:200, AB5864, Millipore) and Amyloid Precursor Protein (APP, 1:200; clone 22C11). After overnight incubation with primary antibody, tissues were washed and incubated with secondary antibodies: goat anti-rat Alexa-fluor 488 (1:200, Thermofisher), goat anti-rabbit TxRd (1:200, Thermofisher). APP is a marker for neuro-axonal damage while co-staining for CC1 and Olig2 are markers of mature oligodendrocytes. In order to examine the amount of myelin, slices were incubated in Fluoromyelin (1:300; F34651, Thermofisher) for 45 minutes. Images were acquired on a Keyence fluorescence microscope. Mean fluorescence intensity of the medial corpus callosum was measured using ImageJ.
Oligodendrogenesis were examined in vitro using mouse neural stem cells (NSC) derived from the medial ganglionic eminence of E12.5 mouse embryos, where OPC's first appear. […] Consistent with increased PDGFRα surface expression, GIcNAc also promoted pre-oligodendrocyte differentiation as evidenced by augmented expression of Oligodendrocyte Transcription Factor (OLIG2) and increased numbers of 04 and GaIC positive cells (FIGS. 1A, 1B and 1C, FIGS. 5B and 5C). […]

In the next experiment the test system is newborn PL/J mice. The experiment in a line: Primary myelination in newborn pups, GIcNAc given to pregnant/lactating mothers in drinking water. The class given is in vivo, mouse. As for the experimental part: GIcNAc treatment of mouse pups—GIcNAc (1 mg/mL) in drinking water was provided to pregnant PLJ mothers or mothers who recently delivered pups and were nursing their young. After the treatment period, pups were anesthetized with isoflurane and cardiac perfused with PBS. Pup and fetal brains were removed and homogenized by trituration using glass pipettes in PBS with 5% Fetal Bovine Serum (FBS).
Cells were then stained with antibodies and analyzed by flow cytometry using antibodies described herein. For immunofluorescence analysis of pup brains, pups were quickly decapitated, brains harvested and fixed in 4% paraformaldehyde overnight.
as §1
To assess whether oral GIcNAc promotes oligodendrogenesis in vivo in the absence of inflammation, primary myelination was examined in mice during the early perinatal period. GIcNAc or vehicle was provided to pregnant/lactating female mice from E12.5, postnatal day 3 (P3) or P5 through to P8. Indeed, oral GIcNAc increased N-glycan branching in PDGFRα^+ cells as well as the number of pre-oligodendrocytes (PDGFRα^+O4^+), immature oligodendrocytes (PDGFRα-O4^+) and mature oligodendrocytes (MBP*), with little effect on the number of OPC's ([…]) (FIG. 2B and FIG. 6A).

In a further experiment the test system is MS patients. The experiment is described as follows: Phase 1 trial: four-week confirmed improvement in disability (EDSS). The class given is in vivo, human. Particulars: unblinded. As for the experimental part: Four-week confirmed improvement in disability (EDSS) was also evaluated in the 6 g and 12 g cohorts. […] Baseline EDSS scores were compared with scores after 4 weeks of oral GIcNAc that were confirmed 4 weeks later at the last study visit.

Where [2] appears, read: NSCs, 48 hrs, growth media lacking exogenous differentiation cytokines.
The mark [3] stands for this setting: mothers treated from E12.5, P3 or P5 to P8, pup brains.

With `CC(=O)N[C@H]1C(O)O[C@H](CO)[C@@H](O)[C@@H]1O` (stereo partly shown) [GIcNAc, N-acetylglucosamine], the “NSC differentiation to O4+ pre-oligodendrocytes” value in experiment [1] (GIcNAc combined with PDGF-AA (differentiation media)) is recorded as “enhanced”. For the same molecule, the “initiating oligodendrogenesis, compared with PDGF-AA differentiation media” value in experiment [1] (GIcNAc in growth media vs differentiation media with exogenous PDGF-AA) is listed as “more potent than differentiation media containing exogenous PDGF-AA”. The “pre-oligodendrocyte differentiation (OLIG2 expression, numbers of O4 and GalC positive cells)” value in experiment [1] (NSCs, 48 hrs, growth media) was “promoted”. Further, in experiment [1] (setting [2]), the “N-glycan branching (L-PHA flow cytometry)” value is “significantly increased” and the PDGFRα surface expression entry is given as “significantly increased”. For the same molecule, in experiment [1] (NSCs, growth media), the “development of pre-oligodendrocytes (PDGFRα O4+), double staining” value was “promoted development” and the “number of OPC's (PDGFRα+O4−)” value is reported as “no change”. For the same molecule, in the experiment on newborn PL/J mice (P3-8), the “primary myelination: staining for myelin (fluoromyelin)” value is “increased” and the “primary myelination: staining for myelin basic protein (MBP)” value was “increased”. Also, in the experiment with newborn PL/J mice (setting [3]), the “N-glycan branching in PDGFRα+ cells” value was “increased”, the “number of OPC's (PDGFRα−O4+)” value is on record as “little effect”, the “number of immature oligodendrocytes (PDGFRα-O4+)” value was “increased” and the “number of mature oligodendrocytes (MBP)” value is “increased”. Further, the “number of pre-oligodendrocytes (PDGFRα+O4+)” value in the experiment on newborn PL/J mice (setting [3]) is given as “increased”. In the experiment with MS patients (6 g/day, 4 of 18 subjects), the “subjects with 4-week confirmed improvement in clinical disability (EDSS)” value is recorded as 22%. In addition, the “subjects with 4-week confirmed improvement in clinical disability (EDSS)” value in the experiment on MS patients (12 g/day, 5 of 16 subjects) is 31%.

These data come from patent US20240415858A1, “PROMOTING MYELINATION BY N-ACETYLGLUCOSAMINE AND MODULATION OF N-GLYCAN BRANCHING” (THE REGENTS OF THE UNIVERSITY OF CALIFORNIA, priority 2021, published 2024).
